Data set [1] relates to BXSB.Yaa Cd8/IL15−/− mice. In words: mouse systemic lupus erythematosus (SLE) model treated with DIDS. It is filed as in vivo. The text has this: BXSB.Yaa Cd8/IL15−/− mice are an established model for SLE. These mice display many characteristics of human SLE including hypergammaglobulinemia, circulating antinuclear antibodies and immune complex medicated glomerulonephritis, and ultimately succumb to disease around 24 weeks of age (Andrews et al. 1978, J Exp Med 148: 1198-215; Dixon et al. 1978, Arthritis Rheum 21: S64-7; Izui et al. 2000, Int Rev Immunol 19: 447-72). Genetic deletion of Cd8a and IL15 from the model results in a similar clinical phenotype which appears much early with survival averaging 14 weeks of age (McPhee et al. 2011, J Immunol 187:4695-4704)
Six week old male BXSB.Cg-Cd8a<tm1Mak> IL15<tm1Imx>/Dcr (abbreviated as BXSB.Yaa Cd8/IL15−/−) mice were retro-orbitally bled into heparin primed tubes to collect serum. 25 mg/kg (n=5) or 50 mg/kg DIDS (n=6) in 4% potassium bicarbonate with PBS or an equivalent volume of 4% potassium bicarbonate (n=2 and n=4) was administered intraperitoneally on day 0, and every seven days for five weeks. Mice were weighed weekly and serum was collected at 14 day intervals for a 5-week period. These mice were then aged for survival. The serum was analyzed by ELISA for IgG1 and IgG2b content. For the ELISA plates were coated with goat anti-mouse Ig (IgG1 or IgG2b) and incubated overnight at […] Plates were washed three times and P-nitrophenyl Phosphate (p-NPP, AMRESCO) was applied, incubated until standards developed adequately and read on a SpectraMax ELISA plate reader using SoftmaxPro software. Data are expressed as concentration of IgG (mg/ml) based on titration of isotype-specific purified mouse standards. […] Survival data was analyzed using Graphpad Prism software and assessed for statistical significance using both the log-rank Mantel Cox with (FIG. 20A for the 25 mg/kg group with a p value of 0.4289 and FIG. 20B for the 50 mg/kg group with a p value of 0.3698) and Gehan-Breslow-Wilcoxan tests (FIG. 21A for the 25 mg/kg group with a p value of 0.7003 and FIG. 21B for the 50 mg/kg group with a p value of 0.7505).

Data set [2] relates to phosphor-H2AX foci in AID+ and AID− primary human CLL cells. In words: phospho-H2AX foci in primary human CLL cells treated with DIDS. It is filed as cell-based. The note with it: 30 μM DIDS, 2 days in culture, AID+ versus AID− samples. The text has this: Primary human CLL patient derived cells were obtained from peripheral bleeds collected at the time of routine clinical monitoring. Primary peripheral blood samples were collected via routine venipuncture into BD Vacutainer CPT Cell Separation Tubes (Becton Dickinson). Samples were centrifuged to separate red blood cells (RBC) and then inverted to resuspend the monocuclear cells in their own plasma. Samples were stored overnight at the site of collection at room temperature then shipped via courier to the site of analysis. Each sample was tested for AID expression status by reverse transcription PCR (RT-PCR) to detect presence of the human AID mRNA (see Example 11). Samples were then divided into AID+ (those showing detectable levels of AID mRNA) and AID− (those showing no detectable AID mRNA above background) groups. Multiple independent cultures from different AID+ and AID− samples were initiated in standard RPMI-1640 medium containing 10% FBS plus either 0 or 30 μM DIDS. After 2 days in culture, cells from each culture/condition were fixed using paraformaldehyde, mounted on microscope coverslips, permeabilized by washing with weak detergent, and were processed for immunofluorescent detection of the DNA double strand break marker phosphor-H2AX (primary antibody: cat. No. A300-081A, Bethyl Laboratories; 1:400 dilution). […]

For data set [3], the system named is AID+/+ (C57BL/6) or AID−/− mice. In words: systemic DIDS treatment of DNP-KLH immunized mice. It is filed as in vivo. On the procedure: To test the in vivo effectiveness of DIDS, either AID+/+ (C57BL/6) or AID−/− mice (Muramatsu et al. et al., 2000 supra) were administered DIDS (10 mg/kg or 50 mg/kg) at weekly intervals, immunized at weeks 1 with dinitrophenol conjugated Keyhole limpet hemocyanin (DNP-KLH) in complete Freund's adjuvant (CFA) to stimulate lymphocyte activation, and boosted after 4 weeks with DNP-KLH (in incomplete Freund's adjuvant, IFA). After a total of 7 weeks (FIG. 25A) mice were euthanized. The group size was n=5. […] For this the mice were weighed weekly and the data represent the average fractional change in body mass for five animals, and error bars denote S.E.M.
After the 7-week trial window, tissues from treated and control animals were fixed, sectioned, and analyzed after hematoxylin and eosin (H&E) staining. […] To determine whether DIDS induced a B-cell specific phenotype related to AID, bone marrow, spleen, and peripheral blood, from DIDS-treated AID+/+ versus AID−/− mice, were analyzed for the presence of B220+CD19+ B-cells, by flow cytometry (FIG. 26). […] In FIG. 26 the endpoint flow cytometry dot plot analysis of bone marrow, spleen, and peripheral blood from AID−/− and AID+/+ mice immunized with DNP-KLH and treated with 0, 10, or 50 mg/kg DIDS is shown. Plots represent the population of cells in the lymphocyte gate stained for expression of B220 (y-axis) and CD19 (x-axis). The numbers in the upper right corner of each plot provide the percentage of B220+/CD19+ cells for each analysis. The progression of B-cell maturation from early/pre-GC to post-GC is indicated below.

The source of these data is patent US10207988B2, “Methods and compositions for treatment of cancer and autoimmune disease” (THE JACKSON LABORATORY, priority 2011, dated 2019).

For the molecule `O=S(=O)([O-])c1cc(N=C=S)ccc1/C=C/c1ccc(N=C=S)cc1S(=O)(=O)[O-].[Na+].[Na+]` [DIDS, 4,4′diisothiocyanostilbene-2,2′-disulfonic acid], the “IgG2b serum content (ELISA)” value in data set [1] (25 mg/kg DIDS intraperitoneally every seven days) was “striking decrease”. Also, the body weight result in data set [1] (25 mg/kg DIDS intraperitoneally every seven days for five weeks, versus controls) was “no weight difference”. In addition, the “IgG1 serum content (ELISA)” value in data set [1] (DIDS intraperitoneally every seven days) was “No significant difference”. For the same molecule, the “phosphor-H2AX foci per cell (DNA double strand break marker)” value in data set [2] is recorded as “inhibits repair of AID-mediated genomic DNA double strand breaks (DSBs)”. The “weight gain (fractional change in body mass)” value in data set [3] (0 mg/kg control and 50 mg/kg cohorts, after 5 weeks) is “independent of DIDS exposure”. In data set [3] (10 mg/kg or 50 mg/kg DIDS at weekly intervals, 7 weeks), the “overt signs of toxicity” value was “No animals in either the control or DIDS-treated groups showed overt signs of toxicity”. The “overt non-B-cell toxicity” value in data set [3] (AID+/+ or AID−/− cohort) was “none of the DIDS treated animals”. Besides, the “percentages of splenic B-cells (flow cytometry)” value in data set [3] (AID+/+ or AID−/− mice) is reported as “no consistent differences”. The “toxicity / splenic physiology” value in data set [3] (at least up to 50 mg/kg, AID+/+ or AID−/− mice) is given as “does not induce significant toxicity or general defects in splenic physiology”. The “reduction in circulating B-lymphoid cells (flow cytometry)” value in data set [3] (both 10 mg/kg and 50 mg/kg DIDS, AID+/+ mice) is on record as 9-11 fold. In addition, the “reduction in B220+CD19+ B-cells in the bone marrow (flow cytometry)” value in data set [3] (both 10 mg/kg and 50 mg/kg treated AID+/+ mice) was determined as 25%. In addition, in data set [3] (untreated versus DIDS-treated animals, after 7 weeks), the “spleen sections, H&E staining” value is listed as “no gross anatomical defects or differences in germinal center (GC) architecture”.
